Reference: US20210283092A1, “METHODS AND USES OF […] DERIVATIVES” (priority 2018, published 2021)
“Also recorded” adds a separate entry of the source.

Tests used:
[1] = tested on: human neutrophils stimulated with MSU; assay: MSU-induced calcium mobilization in human neutrophils (Fura-2); type: cell-based; conditions: 1 mg/ml MSU, 30 min pre-incubation
Procedure: Neutrophils were isolated from venous blood of healthy adult volunteers. Briefly, venous blood was obtained in tubes containing isocitrate, red blood cells were sedimented in 2% dextran and neutrophils were aseptically purified by centrifugation on Ficoll-Paque cushions. Contaminating erythrocytes were removed by hypotonic lysis and neutrophils were resuspended in Mg^2+-free HBSS containing 1.6 mM of CaCl2.
(FIG. 7D), D1=(28a) (FIGS. 7E and 7J), D2=(39) (FIG. 7F), D3=(47a) (FIGS. 7G and 7J), D4=(89) (FIG. 7H) prior to the addition of MSU (1 mg/ml).
The intracellular calcium concentration was determined with a spectrofluorometer and is expressed as the area under the curve (from the MSU injection up to 100 sec).
Changes in cytoplasmic calcium were then measured after the addition of MSU or HBSS (the negative control) using two excitation wavelengths at 340 and 380 nm and an emission wavelength of 510 nm. The free internal calcium concentration was estimated from the ratio of the fluorescence values obtained at 340 and 380 nm. The results are calculated as the area under the curve of the intracellular calcium concentration as a function of time (0-100 sec relative to stimulus addition).
Since one of the earliest molecular events in neutrophils that is initiated by MSU is the mobilization of intracellular calcium stores, the effect of (91) (CCl), (43) and (47a) was assessed on this early signalling event. Briefly, and as described in further detail above, human neutrophils were incubated with the fluorescent calcium indicator Fura-2 prior to incubation with a range of concentrations of (91) (CCl), (43) or (47a) and stimulated with MSU. Fura-2 monitors the increase in cytoplasmic calcium caused by its release from intracellular stores.

[2] = tested on: human neutrophils stimulated with MSU; assay: CXCL8/IL-8 release by human neutrophils (ELISA); type: cell-based; conditions: 1 mg/ml MSU, 3 h
Procedure: (§1) Extracellular CXCL8/IL-8 or IL-1β were quantified by ELISA (Invitrogen). All samples were measured in duplicate.
In addition, since IL-1 induces the expression of adhesion molecules on endothelial cells as well as the synthesis of pro-inflammatory cytokines, which together promote a massive recruitment of neutrophils, the ability of CCl (91) and CH-35 (43) to dampen the production of IL-1 was also assessed.

[3] = tested on: human neutrophils stimulated with MSU; assay: IL-1 release by TNF-α primed human neutrophils (ELISA); type: cell-based; conditions: 1 mg/ml MSU, 3 h
Procedure: as §1
The production and secretion of mature IL-1 requires two stimuli. Human neutrophils were, therefore, primed with TNF-α prior to stimulation with MSU. […] (FIG. 8H-J).

[4] = tested on: human neutrophils stimulated with MSU; assay: Superoxide production by human neutrophils (cytochrome C reduction); type: cell-based; conditions: 1 mg/ml MSU
Procedure: The results are expressed as a ratio of the superoxide produced by the MSU control.
Superoxide production was measured using the reduction of cytochrome C assay. The difference between the optical density readings at 550 nm and 540 nm read within the first 10 minutes was multiplied by the extinction coefficient of cytochrome C to obtain the number of nmol O2 produced by 1×10^6 cells. The results are expressed as nmol O2/1×10^6 cells/ml.
An additional neutrophil effector function that is calcium-dependent, known to be activated by MSU and that can cause damage to the inflamed joint, is the production of ROS.

[5] = tested on: MSU-induced leukocyte recruitment to the dorsal air-pouch; assay: Air-pouch model, compound given 5 min prior to MSU; type: in vivo, CD-1 mice
Procedure: (§2) An air-pouch was generated on the dorsum of mice over a period of seven days by injecting air subcutaneously. […] Seven hours after the administration of MSU, the exudate in the air pouches was harvested by two flushes with 2 ml and one with 1 ml of PBS+0.5 M EDTA and the number of recruited leukocytes determined by flow cytometry. Leukocytes were stained with an anti-CD45 and anti-Ly6 G antibody.

[6] = tested on: MSU-induced leukocyte recruitment to the dorsal air-pouch; assay: Air-pouch model, compound given 1.5 hours after MSU; type: in vivo, mice; conditions: 0.5 μmol/kg, after MSU
Procedure: as §2

[7] = tested on: MSU-induced leukocyte recruitment to the dorsal air-pouch; conditions: literature value (Chia et al. 2008); cited from earlier work

N-[(7S)-1,2,3,10-tetramethoxy-9-oxo-5,6,7,9-tetrahydrobenzo[α]heptalen-7-yl] acetamide [Colchicine, reference compound]
lowest concentration significantly inhibiting the MSU-induced increase in intracellular calcium [1]: 10 µM
lowest concentration giving significant decrease in MSU-induced release of IL-8 [2]: 1 µM
concentration at which MSU-induced IL-1 production is diminished (threshold) [3]: 10 µM
lowest concentration inhibiting MSU-induced superoxide production [4]: 1 µM
effect on MSU-induced leukocyte recruitment at 0.5 μmol/kg ([5]; 0.5 μmol/kg, 5 min prior to MSU): lost its potency to significantly inhibit
dose inhibiting MSU-induced leukocyte recruitment ([5]; subcutaneous 5 min prior to MSU, 7 hours): 5 µmol/kg
effect on MSU-induced leukocyte recruitment at 0.5 μmol/kg [6]: no longer able to significantly inhibit; also recorded: loses its anti-inflammatory activity
dose that effectively dampens MSU-induced leukocyte recruitment in mice [7]: 5 µmol/kg
